Source: patent publication US8937091B2 (Japan Science and Technology Agency, priority 2009, dated 2015)

What was measured:
[1] = system: SOCE (store operated calcium entry) in CHO cells; test: Assay of SOCE (store operated calcium entry)-inhibiting action; assay type: cell-based, Chinese hamster; conditions: for inhibition at 10 µM / inhibition at 30 µM / inhibition at 100 µM / IC50: Cricetulus griseus, CHO; for inhibition at 10 µM: test compound 10 μmol; for inhibition at 10 µM / inhibition at 30 µM / inhibition at 100 µM: read-out: SOCE level (percentage of inhibition); for inhibition at 30 µM: test compound 30 μmol; for IC50: Table 1
How it was run: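 CHO cells in calcium-free BSS received compound, then 1 μM thapsigargin 2 min later to deplete stores; after 9 min, 2 mM calcium chloride (final) added. Percent inhibition of the rise in intracellular calcium determined at various compound concentrations.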

[2] = system: IICR (IP3 induced calcium release) in CHO cells; test: Assay of IICR (IP3 induced calcium release)-inhibiting action; assay type: cell-based, Chinese hamster; conditions: for inhibition at 10 µM: test compound 10 μmol; for IC50: Table 1
How it was run: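 Inhibition (%) of the intracellular calcium increase triggered by 10 μM ATP, measured in CHO cells in BSS with calcium. Compound given 1 min after the buffer exchange and 2 min before ATP; values reported per compound concentration.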

[3] = test compound 100 μmol, CHO cells, thapsigargin
[4] = Cricetulus griseus, CHO, CHO cells, 10 μM ATP, read-out: IICR level (percentage of inhibition)
[5] = Cricetulus griseus, CHO, test compound 30 μmol, CHO cells, 10 μM ATP, read-out: IICR level (percentage of inhibition)
[6] = Cricetulus griseus, CHO, test compound 100 μmol, CHO cells, 10 μM ATP, read-out: IICR level (percentage of inhibition)

Structure (SMILES)	inhibition at 10 µM ([1]; CHO cells, thapsigargin) [%]	inhibition at 30 µM ([1]; CHO cells, thapsigargin) [%]	inhibition at 100 µM [1, 3] [%]	inhibition at 10 µM [2, 4] [%]	inhibition at 30 µM [2, 5] [%]	inhibition at 100 µM [2, 6] [%]	IC50 [1] [µM]	SOCE level (percentage of inhibition) [1, 3] [%]	inhibition at 20 µM ([2]; Cricetulus griseus, CHO, test compound 20 μmol, CHO cells, 10 μM ATP, read-out: IICR level (percentage of inhibition)) [%]	IC50 ([2]; Cricetulus griseus, CHO) [µM]	IICR level (percentage of inhibition) ([2]; test compound 30 μmol, CHO cells, 10 μM ATP) [%]	IICR level (percentage of inhibition) ([2]; test compound 100 μmol, CHO cells, 10 μM ATP) [%]
Cc1csc(C(=O)CCN(CCO)Cc2ccccc2)c1 [Example 323, 2-(N-benzylhydroxyethyl)aminoethyl-4-methyl-2-thienylketone]	0	0	30	30	50	30						
CCN(CCC(=O)c1ccncc1)Cc1ccccc1 [Example 209, 2-(N-ethylbenzyl)aminoethyl-4-pyridylketone]	0	20	60	20	20	50						
CCCCN(CCCC)CCC(=O)c1ccc(Br)s1 [Example 338, 2-(N,N-di-n-butyl)aminoethyl-5-bromo-2-thienylketone]	0	0	24	50	50	60						
CC(C)N(CCO)CCC(=O)c1ccco1 [Example 153, 2-(N-hydroxyethylisopropyl)aminoethyl-2-furylketone]	0	0					> 100	10	50	20	60	80
CC(C)N(CCC(=O)c1ccco1)Cc1ccccc1 [Example 109, 2-(N-isopropylbenzyl)aminoethyl-2-furylketone]	0	0	10	20	90	70						
CC(C)N(CCCC(=O)c1ccccc1)Cc1ccccc1 [Example 179, 3-(N-isopropylbenzyl)aminopropylphenylketone]	0	0	0	0	0	0						
CC(C)N(CCO)CCC(=O)c1cccnc1 [Example 158, 2-(N-isopropylhydroxyethyl)aminoethyl-3′-pyridylketone]	0	0	0	30	20	20						
CN(CCC(=O)c1cccc2ccccc12)Cc1ccccc1 [Example 74, 2-(N-methylbenzyl)aminoethyl-1-naphthylketone]	0	10	30	30	50	70						
Cc1cc(C(=O)CCN(CCO)CCO)c(C)s1 [Example 229, 2-(N,N-bis-2-hydroxyethyl)aminoethyl-2,5-dimethyl-3-thiophenylketone]	0	0	0	0	0	0						
CCCCCCN(CCCCCC)CCC(=O)c1ccc(Br)s1 [Example 383, 2-(N,N-dihexyl)aminoethyl-5-bromo-2-thienylketone]	25	16	46	0	5	0						
NCCSSCCN(CCC(=O)c1ccc(Br)cc1)CCC(=O)c1ccc(Br)cc1 [Example 367, N,N-bis(2-(4-bromo-benzoyl)ethyl)cystamine]	0	17	96	0	0	70						
O=C(CCN1CCCCC1)c1ccc(Br)s1 [Example 348, 2-piperidinoethyl-5-bromo-2-thienylketone]	0	0	16	20	0	20						
CC(C)N(CCC(=O)c1cnccn1)Cc1ccccc1 [Example 117, 2-(N-isopropylbenzyl)aminoethyl-2-pyrazylketone]	0	0	0	20	50	90	> 100			30		
CCN(CCC(=O)c1ccc(Cl)s1)Cc1ccccc1 [Example 278, 2-(N-ethylbenzyl)aminoethyl-5-chloro-2-thienylketone]		30	40	30	20	60						
COC(=O)C(CSSCC(NCCC(=O)c1nccs1)C(=O)OC)NCCC(=O)c1nccs1 (centres unmarked) [Example 400]	20	40	50	19	0	13						
CC(CN(CCO)C(C)(C)C)C(=O)c1ccc(F)cc1 (centres unmarked) [Example 161, 2-(N-hydroxyethyl-t-butyl)amino-1-methylethyl-4-fluorophenylketone]	0	0	20	0	0	20						
C=CCC(=O)c1cccc2ccccc12 [Example 93, Allyl-1-naphthylketone]	0	0	30	20	70	90						
COC(=O)C(CSSCC(NCCC(=O)c1ccc2c(c1)Cc1ccccc1-2)C(=O)OC)NCCC(=O)c1ccc2c(c1)Cc1ccccc1-2 (centres unmarked) [Example 404]	20	40	50	54	84	94						
O=C(CCN(CCO)Cc1ccccc1)c1ccc[nH]1 [Example 173, 2-(N-benzylhydroxyethyl)aminoethyl-2-pyrrolylketone]	0	0	0	0	50	80						
COC(=O)C(CSSCC(NCCC(=O)c1ccc(I)s1)C(=O)OC)NCCC(=O)c1ccc(I)s1 (centres unmarked) [Example 406, N,N-bis(5-iodo-2-thiophenoylethyl)cystinemethylester]	20	40	50	49	43	62						
O=C(CCNCCS)c1ccc(Br)s1 [Example 335, 2-(N-mercaptoethyl)aminoethyl-5-bromo-2-thienylketone]	20	30	50	10	50	70						
CC(C)N(CCC(=O)c1cccnc1)Cc1ccccc1 [Example 106, 2-(N-isopropylbenzyl)aminoethyl-3-pyridylketone]	0	0	0	90	90	100	> 100			< 10		
